Tests used:
[1] = system: ONE58 mesothelioma cell line; assay: Anchorage-independent growth-death assay, ONE58; assay type: cell-based, human; conditions: single agent, 6 days; for IC50: read-out: gIC50; for Ymin-T0: negative = net cell kill
Description: (§1) Five human mesothelioma cell lines were used in these studies. Cells were grown in RPMI1640 media containing 10% FBS, 1% L-glutamine, 1% sodium pyruvate under standard cell culture conditions. The mesothelioma cell lines: Mero-14, Mero-82, NCI-H2052, NO36, and ONE58. The cellular response to Compound A or B was evaluated in an anchorage-independent cell growth assay that quantified the extent of cell growth inhibition and the net change in cell population. The assay was performed in black, clear bottom, untreated 384-well plates (Greiner #781096). It is important to use either non-tissue culture treated or Low Attachment plates to prevent cells from adhering to the plate during the assay. In brief, the assay was performed as described below. A 1% (weight/volume) stock of methylcellulose solution was prepared by dissolving 5 grams of methylcellulose (Sigma #M0512) in 495 mL of cell culture medium. […] Media can be substituted if the cells require different cell culture medium for growth. The dissolution often took a day with vigorous stirring at 4° C. maintaining sterile conditions. Cells were plated into a 384 well plate with assay conditions of 0.65% methylcellulose (final concentration) and 1000 cells per well in a final volume of 48 μL. […] The cells were mixed by inversion to distribute evenly, bubbles were dispersed and 48 μL was placed into the well with a positive displacement pipette. The plates were placed in a cell culture incubator containing 5% CO2 at 37° C. Serial dilution of compound in DMSO was done in a 384 well plate starting with μL of stock compound solution in the first column and 10 μL of DMSO in the other wells. Ten μL from the compound well was transferred into the DMSO containing well, mixed, and the serial dilution was continued with 10 μL transfers across the plate. Then, 4 μL of this DMSO diluted compound was added into wells of a new 384 well plate containing 105 μL of appropriate growth medium. This 'compound plate' was used to dose the assay plates containing cells in methylcellulose. For combination experiments, 20 μL of stock compound solution was a mixture of Compound A and Compound B at the designated ratio. For an example, for 1 to 1 ratio, 10 ul of Compound A at 40 mM and 10 ul of Compound B at 40 mM was mixed to generate ul of stock compound solution with both Compound A and Compound B at 20 mM concentration. […] Serial dilution and compound plate dilution was done as described above. Two μL from each well of the 'compound plate' was added to the individual wells of the 'cell plates' containing the 48 μL of cells in methylcellulose to initiate the assay. These assay plates were placed in the cell culture incubator for 6 days. One 'cell plate' was selected at random and was developed (see below) with Cell [NT] the time compound was added to the remaining cell plates and represents the time equal zero (T0) plate, i.e. it represents the number of cells at the time of compound addition. After 6 days the assay was stopped and the plates were developed by placing a black sticker on bottom of each plate to block light, 25 μL of CTG was added and then plates were incubate for 20 minutes at room temperature. The plates were scanned using a luminescence protocol on the EnVision (Perkin-Elmer). Results were expressed as a percent of the T0 value and plotted against the compound concentration. […] Positive values indicate net cell growth and negative values represent net cell kill. […] The results for the combination were analyzed by determination of Combination Index (CI) values using both mutually exclusive and mutually non-exclusive assumptions (12). The XC50 denotes that each parameter from the growth-death analysis was used, either gIC50 or gIC100 or […] values, to calculate the CI values. The A+B represents the XC50 value for the combination relative to the concentration of A and the B+A represents the XC50 value for the combination relative to the concentration of B in the combination.

[2] = system: Mero-82 mesothelioma cell line; assay: Anchorage-independent growth-death assay, Mero-82; assay type: cell-based, human; conditions: single agent, 6 days; for EC50 / IC50: Homo sapiens, 144 h; for EC50 / IC50 / gIC100: anchorage-independent; for EC50: read-out: dEC50; for IC50: read-out: gIC50; for Ymin-T0: negative = net cell kill
Description: as §1

[3] = system: NCI-H2052 mesothelioma cell line; assay: Anchorage-independent growth-death assay, NCI-H2052; assay type: cell-based, human; conditions: single agent, 6 days; for IC50: Homo sapiens, 144 h, read-out: gIC50; for Ymin-T0: negative = net cell kill
Description: (§2) Five human mesothelioma cell lines were used in these studies. Cells were grown in RPMI1640 media containing 10% FBS, 1% L-glutamine, 1% sodium pyruvate under standard cell culture conditions. The mesothelioma cell lines: Mero-14, Mero-82, NCI-H2052, NO36, and ONE58. The cellular response to Compound A or B was evaluated in an anchorage-independent cell growth assay that quantified the extent of cell growth inhibition and the net change in cell population. The assay was performed in black, clear bottom, untreated 384-well plates (Greiner #781096). It is important to use either non-tissue culture treated or Low Attachment plates to prevent cells from adhering to the plate during the assay. In brief, the assay was performed as described below. A 1% (weight/volume) stock of methylcellulose solution was prepared by dissolving 5 grams of methylcellulose (Sigma #M0512) in 495 mL of cell culture medium. […] Media can be substituted if the cells require different cell culture medium for growth. The dissolution often took a day with vigorous stirring at 4° C. maintaining sterile conditions. Cells were plated into a 384 well plate with assay conditions of 0.65% methylcellulose (final concentration) and 1000 cells per well in a final volume of 48 μL. […] The cells were mixed by inversion to distribute evenly, bubbles were dispersed and 48 μL was placed into the well with a positive displacement pipette. The plates were placed in a cell culture incubator containing 5% CO2 at 37° C. Serial dilution of compound in DMSO was done in a 384 well plate starting with μL of stock compound solution in the first column and 10 μL of DMSO in the other wells. Ten μL from the compound well was transferred into the DMSO containing well, mixed, and the serial dilution was continued with 10 μL transfers across the plate. Then, 4 μL of this DMSO diluted compound was added into wells of a new 384 well plate containing 105 μL of appropriate growth medium. This 'compound plate' was used to dose the assay plates containing cells in methylcellulose. For combination experiments, 20 μL of stock compound solution was a mixture of Compound A and Compound B at the designated ratio. For an example, for 1 to 1 ratio, 10 ul of Compound A at 40 mM and 10 ul of Compound B at 40 mM was mixed to generate ul of stock compound solution with both Compound A and Compound B at 20 mM concentration. […] Serial dilution and compound plate dilution was done as described above. Two μL from each well of the 'compound plate' was added to the individual wells of the 'cell plates' containing the 48 μL of cells in methylcellulose to initiate the assay. These assay plates were placed in the cell culture incubator for 6 days. One 'cell plate' was selected at random and was developed (see below) with Cell [NT] the time compound was added to the remaining cell plates and represents the time equal zero (T0) plate, i.e. it represents the number of cells at the time of compound addition. […] The plates were scanned using a luminescence protocol on the EnVision (Perkin-Elmer). Results were expressed as a percent of the T0 value and plotted against the compound concentration. […] The results for the combination were analyzed by determination of Combination Index (CI) values using both mutually exclusive and mutually non-exclusive assumptions (12). […]

[4] = system: five human mesothelioma cell lines; assay: Anchorage-independent growth-death assay, summary over the cell line panel; assay type: cell-based; conditions: 6 days of compound exposure, FIG. 4
Description: Five human mesothelioma cell lines were used in these studies. Cells were grown in RPMI1640 media containing 10% FBS, 1% L-glutamine, 1% sodium pyruvate under standard cell culture conditions. The mesothelioma cell lines: Mero-14, Mero-82, NCI-H2052, NO36, and ONE58.
The cellular response to Compound A or B was evaluated in an anchorage-independent cell growth assay that quantified the extent of cell growth inhibition and the net change in cell population. The assay was performed in black, clear bottom, untreated 384-well plates (Greiner #781096). It is important to use either non-tissue culture treated or Low Attachment plates to prevent cells from adhering to the plate during the assay. In brief, the assay was performed as described below.
A 1% (weight/volume) stock of methylcellulose solution was prepared by dissolving 5 grams of methylcellulose (Sigma #M0512) in 495 mL of cell culture medium. […]
After 6 days the assay was stopped and the plates were developed by placing a black sticker on bottom of each plate to block light, 25 μL of CTG was added and then plates were incubate for 20 minutes at room temperature. The plates were scanned using a luminescence protocol on the EnVision (Perkin-Elmer).
Results were expressed as a percent of the T0 value and plotted against the compound concentration. […]

[5] = system: Mero-14 mesothelioma cell line; assay: Anchorage-independent growth-death assay, Mero-14; assay type: cell-based, human; conditions: single agent, 6 days; for EC50 / IC50: Homo sapiens, 144 h; for EC50 / IC50 / gIC100: anchorage-independent; for EC50: read-out: dEC50; for IC50: read-out: gIC50; for Ymin-T0: negative = net cell kill
Description: as §1

[6] = system: NO36 mesothelioma cell line; assay: Anchorage-independent growth-death assay, NO36; assay type: cell-based, human; conditions: single agent, 6 days; for IC50: Homo sapiens, 144 h, read-out: gIC50; for Ymin-T0: negative = net cell kill
Description: as §2

[7] = Homo sapiens, 144 h, anchorage-independent

SMILES	IC50 [1, 7] [nM]	gIC100 ([1]; anchorage-independent) [µM]	Ymin-T0 [1] [%]	EC50 [2] [µM]	IC50 [2] [nM]	gIC100 [2] [nM]	Ymin-T0 [2] [%]	IC50 ([3]; anchorage-independent) [nM]	gIC100 ([3]; anchorage-independent) [µM]	Ymin-T0 [3] [%]	net change in cell population (Ymin-T0), in words [4]	EC50 [5] [µM]	IC50 [5] [nM]	gIC100 [5] [nM]	Ymin-T0 [5] [%]	IC50 ([6]; anchorage-independent) [µM]	Ymin-T0 [6] [%]	EC50 ([1]; Homo sapiens, 144 h, anchorage-independent, read-out: dEC50) [nM]	gIC100 ([6]; anchorage-independent) [nM]
CONC(=O)c1ccccc1Nc1cc(Nc2cc(C)nn2C(C)C)ncc1Cl [Compound A, 2-[(5-Chloro-2-{[3-methyl-1-(1-methylethyl)-1H-pyrazol-5-yl]amino}-4-pyridinyl)amino]-N-(methyloxy)benzamide]	23	6.135	−14	6.9	16	983	−53	408	5.73	−30	generally cytostatic	9.58	56	3888	−52	17	134	–	–
CC(=O)Nc1cccc(-n2c(=O)n(C3CC3)c(=O)c3c(Nc4ccc(I)cc4F)n(C)c(=O)c(C)c32)c1 [Compound B, N-{3-[3-cyclopropyl-5-(2-fluoro-4-iodo-phenylamino)-6,8-dimethy-2,4,7-trioxo-3,4,6,7-tetrahydro-2H-pyrido[4,3-d]pyrimidin-1-yl]phenyl}acetamide]	8.8	0.045	−92	0.191	10	67	−89	16	–	31	cytotoxic in three of the five cell lines	0.071	6.6	26	−78	0.134	−17	190	2345

From patent US20160263116A1, “COMBINATIONS” (GlaxoSmithKline LLC, priority 2012, published 2016)
